Here are results for 16 compounds from patent US11753407B2, “Compounds for treating spinal muscular atrophy” (PTC Therapeutics, Inc., priority 2012, dated 2023).

Each structure is given as a SMILES string. Where only a bound is given, the exact number is not on record here.

Data set [1] relates to SMN2 minigene mRNA (SMN2-A minigene) in HEK293H cells. In words: SMN2 minigene mRNA splicing RT-qPCR assay in cultured cells. The data set is classed as cell-based, human. Particulars: Homo sapiens, HEK293-H; concentration increasing full length SMN2 mRNA 1.5-fold relative to vehicle-treated cells; HEK293H cells with SMN2-A minigene, 24 hours, 7-point concentration data; read-out: EC1.5x for production of full length SMN2 mRNA. Summed up: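 EC1.5× = concentration raising full-length SMN2 minigene mRNA 1.5-fold over vehicle, from 7-point curves in duplicate. Stably transfected HEK293H cells exposed 24 h at 37 °C; lysates assayed by multiplex RT-qPCR, minigene FL signal normalized to GAPDH via modified ΔΔCt.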
(In general: Real-time PCR tracks product formation cycle by cycle.)

Data set [2] concerns Smn protein in SMA patient fibroblast cells (GM03813). Briefly: Smn protein assay in cultured cells (SMN HTRF). The data set is classed as cell-based, human. Particulars: SMA patient fibroblast cells, 48 hours; for EC1.5x for Smn protein expression: 7-point concentration curve, SMN HTRF, concentration producing 1.5 times Smn protein vs DMSO vehicle control; for maximum fold (Fold) increase of Smn protein: 7-point concentration data, fold relative to vehicle control. Summed up: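 Smn protein quantified by HTRF with anti-SMN d2/kryptate pair, 665/620 nm ratio blank-corrected, in RIPA lysates of GM03813 fibroblasts after 48 h compound exposure (7 concentrations, 3.16-fold steps, triplicates). Values: concentration producing 1.5× vehicle Smn level, and maximal fold increase.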
In general terms: TR-FRET usually uses a lanthanide donor and a delayed reading to cut background.

What is called melting point is the temperature, or range, at which the solid turns liquid. The compound `COc1ccc(-c2cc(=O)n3cc(N4CCN[C@@H](C)C4)cc(C)c3n2)cc1F` [Compound 327, 2-(3-fluoro-4-methoxyphenyl)-9-methyl-7-[(3S)-3-methylpiperazin-1-yl]-4H-pyrido[1,2-a]pyrimidin-4-one] returned a melting point of 198 to 202 °C. Moreover, in data set [1], the EC (1.5-fold increase) was under 0.1 µM. Also, in data set [2], the “EC1.5x for Smn protein expression” value is “**** (an EC1.5x≤0.3 μM is indicated by four stars (****))”; the “maximum fold (Fold) increase of Smn protein” value (from here on “maximum fold (Fold) increase”) is “**** (a fold increase between >1.5 and ≤1.65 is indicated by four stars (****))”.

Consider `COc1ccc(-c2cc(=O)n3cc(N4CCC(N(C)C)CC4)cc(C)c3n2)cc1F` [Compound 328, 7-[4-(dimethylamino)piperidin-1-yl]-2-(3-fluoro-4-methoxyphenyl)-9-methyl-4H-pyrido[1,2-a]pyrimidin-4-one], for which the melting point lay in the range of 141 to 145 °C. Further, the EC (1.5-fold increase) in data set [1] is under 0.1 µM. The “maximum fold (Fold) increase” value in data set [2] was “*** (a fold increase between >1.35 and ≤1.5 is indicated by three stars (***))”.

`COc1ccc(-c2cc(=O)n3cc(C4CCN(C)CC4)cc(C)c3n2)cc1F` [Compound 329, 2-(3-fluoro-4-methoxyphenyl)-9-methyl-7-(1-methylpiperidin-4-yl)-4H-pyrido[1,2-a]pyrimidin-4-one] had a melting point of 198 to 203 °C. Moreover, the EC (1.5-fold increase) in data set [1] is under 0.1 µM. Besides, in data set [2], the “EC1.5x for Smn protein expression” value was “** (an EC1.5× between >1 μM and ≤3 μM is indicated by two stars (**))”; the “maximum fold (Fold) increase” value was “**** (a fold increase between >1.5 and ≤1.65 is indicated by four stars (****))”.

On to `COc1ccc(-c2cc(=O)n3cc(N4CCC(NC5CC5)CC4)cc(C)c3n2)cc1OC` [Compound 330, 7-[4-(cyclopropylamino)piperidin-1-yl]-2-(3,4-dimethoxyphenyl)-9-methyl-4H-pyrido[1,2-a]pyrimidin-4-one], for which the melting point is 141 °C. For the same compound, the EC (1.5-fold increase) in data set [1] fell in the range of 0.1 to 0.3 µM. Also, in data set [2], the “maximum fold (Fold) increase” value was “** (a fold increase between >1.2 and ≤1.35 is indicated by two stars (**))”.

Regarding `Cc1cn2cc(-c3cc(=O)n4cc(N5CCN(C)[C@@H](C)C5)ccc4n3)cc(Cl)c2n1` [Compound 331, 2-(8-chloro-2-methylimidazo[1,2-a]pyridin-6-yl)-7-[(3S)-3,4-dimethylpiperazin-1-yl]-4H-pyrido[1,2-a]pyrimidin-4-one], the melting point lay in the range of 258 to 262 °C. Also, the EC (1.5-fold increase) in data set [1] was under 0.1 µM. Also, in data set [2], the “EC1.5x for Smn protein expression” value is “**** (an EC1.5x≤0.3 μM is indicated by four stars (****))” and the “maximum fold (Fold) increase” value is on record as “***** (a fold increase >1.65 is indicated by five stars (*****))”.

Consider `COc1ccc(-c2cc(=O)n3cc(N4C[C@@H](C)N[C@@H](C)C4)cc(C)c3n2)cc1OC` [Compound 332, 2-(3,4-dimethoxyphenyl)-7-[(3R,5S)-3,5-dimethylpiperazin-1-yl]-9-methyl-4H-pyrido[1,2-a]pyrimidin-4-one], for which the melting point lay in the range of 225 to 233 °C. Also, the EC (1.5-fold increase) in data set [1] lay in the range of 0.3 to 1 µM. Also, in data set [2], the “maximum fold (Fold) increase” value was “* (A maximum fold increase of ≤1.2 is indicated by one star (*))”.

As to `COc1ccc(-c2cc(=O)n3cc(N4CCN(C)[C@H](C)C4)cc(C)c3n2)cc1OC` [Compound 333, 2-(3,4-dimethoxyphenyl)-7-[(3R)-3,4-dimethylpiperazin-1-yl]-9-methyl-4H-pyrido[1,2-a]pyrimidin-4-one], the melting point was determined as 148 °C. Besides, in data set [1], the EC (1.5-fold increase) lay in the range of 0.1 to 0.3 µM. Also, in data set [2], the “EC1.5x for Smn protein expression” value is “** (an EC1.5× between >1 μM and ≤3 μM is indicated by two stars (**))”; the “maximum fold (Fold) increase” value is “**** (a fold increase between >1.5 and ≤1.65 is indicated by four stars (****))”.

Consider `Cc1cn2nc(-c3cc(=O)n4cc(N5CCCN(C)CC5)ccc4n3)cc2c(C)n1` [Compound 334, 2-(4,6-dimethylpyrazolo[1,5-a]pyrazin-2-yl)-7-(4-methyl-1,4-diazepan-1-yl)-4H-pyrido[1,2-a]pyrimidin-4-one], for which the melting point is 169 to 171 °C. Moreover, the EC (1.5-fold increase) in data set [1] was under 0.1 µM. Besides, in data set [2], the “EC1.5x for Smn protein expression” value is given as “**** (an EC1.5x≤0.3 μM is indicated by four stars (****))” and the “maximum fold (Fold) increase” value is given as “***** (a fold increase >1.65 is indicated by five stars (*****))”.

Consider `Cc1cn2nc(-c3cc(=O)n4cc(N5CCN6CCC[C@H]6C5)ccc4n3)cc2c(C)n1` [Compound 336, 2-(4,6-dimethylpyrazolo[1,5-a]pyrazin-2-yl)-7-[(8aS)-hexahydropyrrolo[1,2-a]pyrazin-2(1H)-yl]-4H-pyrido[1,2-a]pyrimidin-4-one], for which the melting point lay within 215 to 218 °C. In addition, the EC (1.5-fold increase) in data set [1] is 0.1 to 0.3 µM. For the same compound, in data set [2], the “EC1.5x for Smn protein expression” value is reported as “**** (an EC1.5x≤0.3 μM is indicated by four stars (****))” and the “maximum fold (Fold) increase” value was “***** (a fold increase >1.65 is indicated by five stars (*****))”.

`Cc1cn2nc(-c3cc(=O)n4cc(N5CCN6CCC[C@@H]6C5)ccc4n3)cc2c(C)n1` [Compound 337, 2-(4,6-dimethylpyrazolo[1,5-a]pyrazin-2-yl)-7-[(8aR)-hexahydropyrrolo[1,2-a]pyrazin-2(1H)-yl]-4H-pyrido[1,2-a]pyrimidin-4-one] came in with a melting point of 228 to 230 °C. For the same compound, the EC (1.5-fold increase) in data set [1] is under 0.1 µM. In addition, in data set [2], the “EC1.5x for Smn protein expression” value is listed as “**** (an EC1.5x≤0.3 μM is indicated by four stars (****))” and the “maximum fold (Fold) increase” value was “***** (a fold increase >1.65 is indicated by five stars (*****))”.

In the case of `CCN1CCN(c2ccc3nc(-c4cc5c(C)nc(C)cn5n4)cc(=O)n3c2)CC1` [Compound 338, 2-(4,6-dimethylpyrazolo[1,5-a]pyrazin-2-yl)-7-(4-ethylpiperazin-1-yl)-4H-pyrido[1,2-a]pyrimidin-4-one], the melting point lay in the range of 251 to 253 °C. Also, in data set [1], the EC (1.5-fold increase) is under 0.1 µM. For the same compound, in data set [2], the “EC1.5x for Smn protein expression” value is recorded as “**** (an EC1.5x≤0.3 μM is indicated by four stars (****))” and the “maximum fold (Fold) increase” value is on record as “***** (a fold increase >1.65 is indicated by five stars (*****))”.

In turn, `Cc1cn2nc(-c3cc(=O)n4cc(N5CCC(N(C)C)CC5)ccc4n3)cc2c(C)n1` [Compound 339, 7-[4-(dimethylamino)piperidin-1-yl]-2-(4,6-dimethylpyrazolo[1,5-a]pyrazin-2-yl)-4H-pyrido[1,2-a]pyrimidin-4-one] registered a melting point of 208 to 210 °C. The EC (1.5-fold increase) in data set [1] was under 0.1 µM. Further, in data set [2], the “EC1.5x for Smn protein expression” value is given as “**** (an EC1.5x≤0.3 μM is indicated by four stars (****))” and the “maximum fold (Fold) increase” value is “***** (a fold increase >1.65 is indicated by five stars (*****))”.

In the case of `Cc1cn2nc(-c3cc(=O)n4cc(N5CCNC(C)(C)C5)ccc4n3)cc2c(C)n1` [Compound 340, 7-(3,3-dimethylpiperazin-1-yl)-2-(4,6-dimethylpyrazolo[1,5-a]pyrazin-2-yl)-4H-pyrido[1,2-a]pyrimidin-4-one], the melting point was 195 to 197 °C. The EC (1.5-fold increase) in data set [1] is under 0.1 µM. Besides, in data set [2], the “EC1.5x for Smn protein expression” value is on record as “**** (an EC1.5x≤0.3 μM is indicated by four stars (****))” and the “maximum fold (Fold) increase” value is listed as “***** (a fold increase >1.65 is indicated by five stars (*****))”.

Take `Cc1cn2nc(-c3cc(=O)n4cc(N5CCN(C6CC6)CC5)ccc4n3)cc2c(C)n1` [Compound 341, 7-(4-cyclopropylpiperazin-1-yl)-2-(4,6-dimethylpyrazolo[1,5-a]pyrazin-2-yl)-4H-pyrido[1,2-a]pyrimidin-4-one]: the melting point was 189 to 192 °C. In addition, the EC (1.5-fold increase) in data set [1] fell in the range of 0.3 to 1 µM. Also, in data set [2], the “EC1.5x for Smn protein expression” value was “*** (an EC1.5× between >0.3 μM and ≤1 μM is indicated by three stars (***))”; the “maximum fold (Fold) increase” value was “***** (a fold increase >1.65 is indicated by five stars (*****))”.

The compound `COc1ccc(-c2cc(=O)n3cc(N4CCN(C)CC4)cc(C)c3n2)cc1OC` [Compound 344, 2-(3,4-dimethoxyphenyl)-9-methyl-7-(4-methylpiperazin-1-yl)-4H-pyrido[1,2-a]pyrimidin-4-one] yielded a melting point of 191 to 198 °C. The EC (1.5-fold increase) in data set [1] was in the range of 0.1 to 0.3 µM. Also, in data set [2], the “EC1.5x for Smn protein expression” value was “*** (an EC1.5× between >0.3 μM and ≤1 μM is indicated by three stars (***))”; the “maximum fold (Fold) increase” value is recorded as “***** (a fold increase >1.65 is indicated by five stars (*****))”.

With `CCc1cc(N2CCC(N(C)C)CC2)cn2c(=O)cc(-c3ccc(OC)c(OC)c3)nc12` [Compound 345, 2-(3,4-dimethoxyphenyl)-7-[4-(dimethylamino)piperidin-1-yl]-9-ethyl-4H-pyrido[1,2-a]pyrimidin-4-one], the melting point is 146 to 150 °C. Further, the EC (1.5-fold increase) in data set [1] was under 0.1 µM. The “maximum fold (Fold) increase” value in data set [2] is “*** (a fold increase between >1.35 and ≤1.5 is indicated by three stars (***))”.
